Experimental data published in BindingDB's records for doi:10.1021/ja0446404 (Yale University, 2005).

molecular target: Bcl-2-like protein 1 (Homo sapiens, UniProt Q07817); test: Fluorescence Polarization Assay; conditions: not given
Experimental: Fluorescence polarization experiments were conducted on a Photon Technology International instrument using a 0.3 cm path length cuvette. Spectra were measured at 25 deg C using 10.0 nm slit widths. Excitation at 495 nm was used for the fluorescein-containing peptide Fl-Bak and the emission maximum at 535 nm was monitored. Polarization measurements were recorded upon titration of inhibitors at varying concentrations into a solution of Fl-Bak and Bcl-xL.

Bcl-2-like protein 1, sequence (Q07817 whole entry): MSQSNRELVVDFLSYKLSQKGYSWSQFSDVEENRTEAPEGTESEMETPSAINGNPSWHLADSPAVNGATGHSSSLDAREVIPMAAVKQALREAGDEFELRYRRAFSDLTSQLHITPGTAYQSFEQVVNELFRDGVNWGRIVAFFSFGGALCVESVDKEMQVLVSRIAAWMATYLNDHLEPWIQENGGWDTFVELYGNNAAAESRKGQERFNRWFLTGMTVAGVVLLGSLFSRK

Row | Compound | Ki [µM]
1 | CC(C)C[C@H](NC(=O)c1ccc(C(=O)N(CC(C)C)[C@H](C(=O)O)C(C)C)cc1OC(C)C)C(=O)O [terephthalamide scaffold, 47] | 450
2 | CC(C)C[C@H](NC(=O)c1ccc(C(=O)N[C@@H](CC(C)C)C(=O)O)c(Oc2ccc3ccccc3c2)c1)C(=O)O [terephthalamide scaffold, 50] | 82.1

same assay, conditions: pH 7.4; 25 °C

Row | Compound | Ki [µM]
3 | COC(=O)[C@H](Cc1ccccc1)NC(=O)c1ccc(C(=O)N(C(C)C)C(C)C)cc1OC(C)C [terephthalamide scaffold, 25] | 10.9
4 | COc1cc(C(=O)N(C(C)C)C(C)C)ccc1C(=O)N[C@@H](CC(C)C)C(=O)O [terephthalamide scaffold, 28] | 2.31
5 | CC(C)C[C@H](NC(=O)c1ccc(C(=O)N(C(C)C)C(C)C)cc1Oc1ccc2ccccc2c1)C(=O)O [terephthalamide scaffold, 31] | 7.63
6 | COC(=O)[C@H](CC(C)C)NC(=O)c1ccc(C(=O)N(C(C)C)C(C)C)cc1Oc1ccc([N+](=O)[O-])cc1 [terephthalamide scaffold, 32] | 13.2
7 | COC(=O)[C@H](CC(C)C)NC(=O)c1ccc(C(=O)N(C)C)cc1OC(C)C [terephthalamide scaffold, 34] | 3.14
